# Several values for one entry are separate records, joined by “and”; a condition that tells them apart may be missing. Equal entries are not always repeated. Where two headings read alike, the source gives them in different places.
# Columns and labels:
# [1] = biological target: T1, CDK12–cyclin K and DDB1 (Homo sapiens, UniProt Q16531+Q9NYV4, K965R); assay: TR-FRET ternary complex formation assay (compound titration); type: binding
# T1 construct: His6–CDK12 (a.a. 713–1,052); full-length or beta-propeller B domain deletion (ΔBPB: a.a. 396–705 deleted) constructs of His6–DDB1ΔBPB, StrepII–Avi–DDB1, or His6–Spy–DDB1; made in house; host or cells: Trichoplusia ni High Five insect cells (baculovirus)
# T1 sequence (Q9NYV4 713-1052 K965R): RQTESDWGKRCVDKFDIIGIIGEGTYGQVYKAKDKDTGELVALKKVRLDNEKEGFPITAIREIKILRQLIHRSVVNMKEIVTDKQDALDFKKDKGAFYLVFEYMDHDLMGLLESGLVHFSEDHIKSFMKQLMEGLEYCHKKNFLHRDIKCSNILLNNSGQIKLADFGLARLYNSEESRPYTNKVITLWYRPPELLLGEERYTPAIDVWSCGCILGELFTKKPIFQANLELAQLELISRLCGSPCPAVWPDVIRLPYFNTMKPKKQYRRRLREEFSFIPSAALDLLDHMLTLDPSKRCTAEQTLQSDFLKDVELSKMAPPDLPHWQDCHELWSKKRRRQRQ
# T1 sequence (O75909 1-267 partner): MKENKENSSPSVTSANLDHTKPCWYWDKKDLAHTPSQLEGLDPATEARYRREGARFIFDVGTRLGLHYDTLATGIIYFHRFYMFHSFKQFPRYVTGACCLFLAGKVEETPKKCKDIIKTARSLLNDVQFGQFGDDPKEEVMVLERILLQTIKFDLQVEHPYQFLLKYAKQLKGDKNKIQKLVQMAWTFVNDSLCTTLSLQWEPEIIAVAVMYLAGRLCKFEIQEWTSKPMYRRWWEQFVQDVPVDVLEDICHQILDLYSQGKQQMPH
# T1 sequence (Q16531 whole entry): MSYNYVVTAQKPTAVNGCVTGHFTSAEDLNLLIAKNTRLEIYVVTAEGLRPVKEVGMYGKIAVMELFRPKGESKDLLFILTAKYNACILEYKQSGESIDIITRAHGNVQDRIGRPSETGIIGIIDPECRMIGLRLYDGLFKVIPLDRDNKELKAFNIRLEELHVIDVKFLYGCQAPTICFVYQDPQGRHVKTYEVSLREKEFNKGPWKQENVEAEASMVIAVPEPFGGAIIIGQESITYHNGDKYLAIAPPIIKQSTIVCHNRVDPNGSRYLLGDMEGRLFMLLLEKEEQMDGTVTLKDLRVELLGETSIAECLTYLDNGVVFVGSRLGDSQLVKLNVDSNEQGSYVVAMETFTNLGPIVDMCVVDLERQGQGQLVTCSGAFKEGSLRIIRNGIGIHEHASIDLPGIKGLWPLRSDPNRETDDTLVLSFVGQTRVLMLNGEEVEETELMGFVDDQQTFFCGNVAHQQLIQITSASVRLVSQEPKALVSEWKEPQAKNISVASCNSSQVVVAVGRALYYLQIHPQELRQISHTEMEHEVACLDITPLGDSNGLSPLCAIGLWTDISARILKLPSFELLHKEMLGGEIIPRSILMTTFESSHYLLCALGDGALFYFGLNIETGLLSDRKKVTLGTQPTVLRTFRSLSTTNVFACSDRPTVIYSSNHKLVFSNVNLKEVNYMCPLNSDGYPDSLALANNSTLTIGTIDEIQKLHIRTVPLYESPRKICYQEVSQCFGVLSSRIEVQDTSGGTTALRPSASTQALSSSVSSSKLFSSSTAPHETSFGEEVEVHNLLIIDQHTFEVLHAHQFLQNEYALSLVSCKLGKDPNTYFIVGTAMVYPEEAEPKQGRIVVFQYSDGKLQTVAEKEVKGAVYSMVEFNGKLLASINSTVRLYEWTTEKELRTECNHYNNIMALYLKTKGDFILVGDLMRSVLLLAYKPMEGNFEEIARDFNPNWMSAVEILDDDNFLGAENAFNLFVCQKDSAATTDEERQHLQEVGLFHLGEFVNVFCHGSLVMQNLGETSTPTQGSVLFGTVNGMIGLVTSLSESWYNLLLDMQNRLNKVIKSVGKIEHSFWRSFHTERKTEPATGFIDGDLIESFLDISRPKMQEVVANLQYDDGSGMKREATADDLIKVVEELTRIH
# Source text: A 70 μs delay was employed to reduce background fluorescence. The TR-FRET signal was obtained through calculating the ratio of 520 nm to 490 nm fluorescence, and Prism 9 (GraphPad) was used for further data analysis.
# [2] = test system: cyclin K–eGFP degradation reporter; assay: Cyclin K reporter stability analysis (dual-color cyclin K–eGFP reporter); type: cell-based, human; conditions: Supplementary Table 2; HEK293T cycK-eGFP reporter, 5 h; read-out: Cellular assays DC50
# Description: HEK293T–Cas9 cells expressing the cyclin K–eGFP degradation reporter were resuspended at 1 × 10^6 ml^−1 and 50 µl of cell suspension was seeded in non-cell-culture-treated 384-well plates. Shortly after, cells were treated with drug or DMSO for 5 h. […] The fluorescent signal was quantified by flow cytometry (LSRFortessa flow cytometer, BD Biosciences). Using FlowJo (flow cytometry analysis software, BD Biosciences), the geometric mean of the eGFP and mCherry fluorescent signal for round and mCherry-positive cells was calculated. The ratio of eGFP to mCherry was normalized to the average of three DMSO-treated controls.
# [3] = test system: HEK293T cells; assay: Drug sensitivity assay (CellTiter-Glo viability) with or without MLN4924 pretreatment; type: cell-based, human; conditions: for EC50: Homo sapiens, HEK-293T; for Toxicity rescue: MLN4924-mediated cytotoxicity rescue, 10 µM used where n.d.
# Description: HEK293T–Cas9 cells were resuspended at 0.15 × 10^6 ml^−1 treated with DMSO or 100 nM MLN4924 and plated on 384-well plates. After 2 h, the indicated drugs were dispensed with a D300 digital dispenser (Tecan). After 3 days of drug exposure, cell viability was assessed using the CellTiter-Glo luminescent assay (Promega, G7572) on an CLARIOstar Plus, MARS 3.4 (BMG LabTech). Cell viabilities were calculated relative to DMSO controls.
# [4] = biological target: CDK12–cyclin K (Homo sapiens, UniProt Q9NYV4); assay: Lanthascreen kinase binding assay, CDK12; conditions: for Lanthascreen raw signal, sheet CDK12: series r1, duplicates
# Sequence of CDK12–cyclin K (Q9NYV4 713-1052): as the sequence (Q9NYV4 713-1052 K965R) above, with R253K counted along it
# Sequence of CDK12–cyclin K (O75909 1-267 partner limits assumed): as the sequence (O75909 1-267 partner) above
# Description: (§1) Lanthascreen experiments were performed using commercially available reagents (Thermo Fisher) and according to the manufacturer’s instructions.
# [5] = biological target: T2, CDK9–cyclin T (Homo sapiens, UniProt P50750); assay: Lanthascreen kinase binding assay, CDK9; conditions: for Lanthascreen TR-FRET signal (raw ratio), sheet CDK9: first titration set (r1), duplicates
# T2 construct: purchased Thermo Fisher
# T2 sequence (P50750 whole entry): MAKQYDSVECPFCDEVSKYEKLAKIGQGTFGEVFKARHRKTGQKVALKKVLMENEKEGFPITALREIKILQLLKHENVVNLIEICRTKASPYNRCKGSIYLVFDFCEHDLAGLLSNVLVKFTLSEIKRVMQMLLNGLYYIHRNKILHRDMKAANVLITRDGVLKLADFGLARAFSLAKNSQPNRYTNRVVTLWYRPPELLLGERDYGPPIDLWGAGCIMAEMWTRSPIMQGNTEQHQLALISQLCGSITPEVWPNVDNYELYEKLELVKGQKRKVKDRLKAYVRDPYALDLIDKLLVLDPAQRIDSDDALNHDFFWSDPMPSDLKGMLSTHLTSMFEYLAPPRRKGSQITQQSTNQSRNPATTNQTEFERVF
# T2 sequence (O60563 whole entry partner): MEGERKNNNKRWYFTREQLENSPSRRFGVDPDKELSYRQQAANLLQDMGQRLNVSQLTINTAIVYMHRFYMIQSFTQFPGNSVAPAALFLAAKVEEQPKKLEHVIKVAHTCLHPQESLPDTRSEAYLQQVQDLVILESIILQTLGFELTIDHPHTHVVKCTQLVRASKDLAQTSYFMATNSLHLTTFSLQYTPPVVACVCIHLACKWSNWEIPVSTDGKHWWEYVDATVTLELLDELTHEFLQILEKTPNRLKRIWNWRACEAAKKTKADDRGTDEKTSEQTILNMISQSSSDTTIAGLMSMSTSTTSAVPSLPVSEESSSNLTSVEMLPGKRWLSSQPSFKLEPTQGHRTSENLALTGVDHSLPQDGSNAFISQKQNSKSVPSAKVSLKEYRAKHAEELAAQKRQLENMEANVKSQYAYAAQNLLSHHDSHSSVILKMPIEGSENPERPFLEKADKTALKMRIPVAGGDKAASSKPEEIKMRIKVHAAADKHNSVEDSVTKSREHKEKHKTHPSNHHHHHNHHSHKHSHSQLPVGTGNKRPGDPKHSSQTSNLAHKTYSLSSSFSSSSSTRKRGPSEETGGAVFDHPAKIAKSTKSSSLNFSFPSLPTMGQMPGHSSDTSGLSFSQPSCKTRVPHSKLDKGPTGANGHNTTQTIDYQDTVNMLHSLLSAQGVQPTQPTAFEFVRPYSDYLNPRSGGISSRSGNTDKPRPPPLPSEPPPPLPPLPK
# Description: as §1
# [6] = biological target: T3, CDK2–cyclin A (Homo sapiens, UniProt P24941); assay: Lanthascreen kinase binding assay, CDK2; conditions: for Lanthascreen signal, sheet CDK2: raw replicates, experiment r1-r11
# T3 construct: purchased Thermo Fisher
# Description: as §1
# [7] = Supplementary Table 2, read-out: TR-FRET EC50 TR-FRET
# [8] = Supplementary Table 2, HEK293T viability, 72 h, compound alone, read-out: Cellular assays EC50
structure (smiles),measurement,setting,value
Cn1cc(-n2cnc3c(NCc4nc5cc(O)ccc5[nH]4)nc(N4CCOCC4)nc32)cn1 [DS54],EC50,[1]; [7],252 nM
same,TR-FRET signal,[1]; compound concentration 4.68 nM,0.1326 and 0.1303
same,TR-FRET signal at compound concentration 4.68 nM,"[1]; compound concentration 4.68 nM, raw replicate titration data",0.1326 and 0.1303
same,TR-FRET signal,[1]; compound concentration 21.6 nM,0.1333 and 0.1406
same,TR-FRET signal at compound concentration 21.6 nM,"[1]; compound concentration 21.6 nM, raw replicate titration data",0.1333 and 0.1406
same,TR-FRET signal,[1]; compound concentration 36 nM,0.1624 and 0.1682
same,TR-FRET signal at compound concentration 36 nM,"[1]; compound concentration 36 nM, raw replicate titration data",0.1624 and 0.1682
same,TR-FRET signal,[1]; compound concentration 79.2001 nM,0.2054 and 0.2174
same,TR-FRET signal at compound concentration 79.2001 nM,"[1]; compound concentration 79.2001 nM, raw replicate titration data",0.2054 and 0.2174
same,TR-FRET signal,[1]; compound concentration 158.4 nM,0.3007
same,TR-FRET signal at compound concentration 158.4 nM,"[1]; compound concentration 158.4 nM, raw replicate titration data",0.3007
same,TR-FRET signal,[1]; compound concentration 309.6 nM,0.4286 and 0.4588
same,TR-FRET signal at compound concentration 309.6 nM,"[1]; compound concentration 309.6 nM, raw replicate titration data",0.4286 and 0.4588
same,TR-FRET signal,[1]; compound concentration 626.401 nM,0.5953 and 0.5848
same,TR-FRET signal at compound concentration 626.401 nM,"[1]; compound concentration 626.401 nM, raw replicate titration data",0.5953 and 0.5848
same,TR-FRET signal,[1]; compound concentration 1252.8 nM,0.6865 and 0.6689
same,TR-FRET signal at compound concentration 1252.8 nM,"[1]; compound concentration 1252.8 nM, raw replicate titration data",0.6865 and 0.6689
same,TR-FRET signal,[1]; compound concentration 2448 nM,0.7142 and 0.68
same,TR-FRET signal at compound concentration 2448 nM,"[1]; compound concentration 2448 nM, raw replicate titration data",0.7142 and 0.68
same,TR-FRET signal,[1]; compound concentration 9936.01 nM,0.6777 and 0.6603
same,TR-FRET signal at compound concentration 9936.01 nM,"[1]; compound concentration 9936.01 nM, raw replicate titration data",0.6777 and 0.6603
same,TR-FRET signal,[1]; compound concentration 20016 nM,0.6177 and 0.617
same,TR-FRET signal at compound concentration 20016 nM,"[1]; compound concentration 20016 nM, raw replicate titration data",0.6177 and 0.617
same,DC50,[2],> 10000 nM
same,EC50,"[3]; Supplementary Fig. 5, HEK293T, CellTiter Glo, 72h, pre-treatment with 100 nM MLN4924, read-out: Viability EC50, with MLN4924",3290 nM
same,EC50,"[3]; Supplementary Fig. 5, HEK293T, CellTiter Glo, 72h, read-out: Viability EC50, no MLN4924",73 nM
same,EC50,[3]; [8],> 10000 nM
same,Toxicity rescue,[3]; Supplementary Table 2,0%
CC(C)n1cnc2c(NCc3ccc(-c4ccccn4)cc3)nc(N3CCCC[C@H]3CCO)nc21 [DS70],EC50,[1]; [7],17.6 nM
same,TR-FRET signal at compound concentration 0.468 nM,[1]; raw replicate titration data,0.3438 and 0.3184 and 0.1924 and 0.2024
same,TR-FRET signal at compound concentration 0.468 nM,[1]; raw titration data,0.3438 and 0.3184 and 0.1924 and 0.2024
same,TR-FRET signal at compound concentration 2.16 nM,[1]; raw replicate titration data,0.4192 and 0.3926 and 0.2807 and 0.3027
same,TR-FRET signal at compound concentration 2.16 nM,[1]; raw titration data,0.4192 and 0.3926 and 0.2807 and 0.3027
same,TR-FRET signal at compound concentration 3.6 nM,[1]; raw replicate titration data,0.579 and 0.5213 and 0.4737 and 0.5178
same,TR-FRET signal at compound concentration 3.6 nM,[1]; raw titration data,0.579 and 0.5213 and 0.4737 and 0.5178
same,TR-FRET signal at compound concentration 7.92001 nM,[1]; raw replicate titration data,0.9688 and 0.8489 and 0.8819 and 0.9925
same,TR-FRET signal at compound concentration 7.92001 nM,[1]; raw titration data,0.9688 and 0.8489 and 0.8819 and 0.9925
same,TR-FRET signal at compound concentration 15.84 nM,[1]; raw replicate titration data,1.662 and 1.49 and 2.462 and 1.9374
same,TR-FRET signal at compound concentration 15.84 nM,[1]; raw titration data,1.662 and 1.49 and 2.462 and 1.9374
same,TR-FRET signal at compound concentration 30.96 nM,[1]; raw replicate titration data,3.334 and 2.673 and 3.406 and 3.32
same,TR-FRET signal at compound concentration 30.96 nM,[1]; raw titration data,3.334 and 2.673 and 3.406 and 3.32
same,TR-FRET signal at compound concentration 62.6401 nM,[1]; raw replicate titration data,4.043 and 3.673 and 3.819 and 3.799
same,TR-FRET signal at compound concentration 62.6401 nM,[1]; raw titration data,4.043 and 3.673 and 3.819 and 3.799
same,TR-FRET signal at compound concentration 125.28 nM,[1]; raw replicate titration data,4.112 and 3.943 and 3.866 and 3.944
same,TR-FRET signal at compound concentration 125.28 nM,[1]; raw titration data,4.112 and 3.943 and 3.866 and 3.944
same,TR-FRET signal at compound concentration 244.8 nM,[1]; raw replicate titration data,4.2103 and 4.005 and 3.909 and 3.827
same,TR-FRET signal at compound concentration 244.8 nM,[1]; raw titration data,4.2103 and 4.005 and 3.909 and 3.827
same,TR-FRET signal at compound concentration 993.601 nM,[1]; raw replicate titration data,4.121 and 4.04 and 3.857 and 3.873
same,TR-FRET signal at compound concentration 993.601 nM,[1]; raw titration data,4.121 and 4.04 and 3.857 and 3.873
same,TR-FRET signal at compound concentration 2001.6 nM,[1]; raw replicate titration data,4.101 and 3.97 and 3.793 and 3.647
same,TR-FRET signal at compound concentration 2001.6 nM,[1]; raw titration data,4.101 and 3.97 and 3.793 and 3.647
same,EC50,"[1]; in vitro complex formation, 50 nM CDK12–cyclin K, 100 nM DDB1, text and figures, read-out: TR-FRET EC50",18 ± 1 nM
same,EC50,[3]; [8],265 nM
same,Toxicity rescue,[3]; Supplementary Table 2,30%
same,"CDK inhibitory selectivity, result in words",[4]; Lanthascreen across CDK2/9/12,more pronounced pan-CDK engagement than CR8
same,IC50,"[4]; Supplementary Table 2, read-out: Lanthascreen IC50 [nM] CDK12",1 nM
same,"Lanthascreen raw signal, sheet CDK12",[4]; compound 1.02544 nM,0.01164 and 0.009885
same,"Lanthascreen raw signal, sheet CDK12",[4]; compound 3.15521 nM,0.008674 and 0.009398
same,"Lanthascreen raw signal, sheet CDK12",[4]; compound 9.46563 nM,0.007398 and 0.008542
same,"Lanthascreen raw signal, sheet CDK12",[4]; compound 31.5521 nM,0.006709 and 0.008514
same,"Lanthascreen raw signal, sheet CDK12",[4]; compound 99.3891 nM,0.005942 and 0.005764
same,"Lanthascreen raw signal, sheet CDK12",[4]; compound 315.521 nM,0.005543 and 0.005183
same,"Lanthascreen raw signal, sheet CDK12",[4]; compound 3155.21 nM,0.004896 and 0.004614
same,"Lanthascreen raw signal, sheet CDK12",[4]; compound 10002 nM,0.00468 and 0.003424
same,IC50,"[5]; Supplementary Table 2, read-out: Lanthascreen IC50 [nM] CDK9",5 nM
same,"Lanthascreen TR-FRET signal (raw ratio), sheet CDK9",[5]; compound 1.02544 nM,0.01641 and 0.01302
same,"Lanthascreen TR-FRET signal (raw ratio), sheet CDK9",[5]; compound 3.15521 nM,0.01102 and 0.01312
same,"Lanthascreen TR-FRET signal (raw ratio), sheet CDK9",[5]; compound 9.46563 nM,0.008363 and 0.009049
same,"Lanthascreen TR-FRET signal (raw ratio), sheet CDK9",[5]; compound 31.5521 nM,0.005358 and 0.007058
same,"Lanthascreen TR-FRET signal (raw ratio), sheet CDK9",[5]; compound 99.3891 nM,0.003738 and 0.004042
same,"Lanthascreen TR-FRET signal (raw ratio), sheet CDK9",[5]; compound 315.521 nM,0.003575 and 0.004296
same,"Lanthascreen TR-FRET signal (raw ratio), sheet CDK9",[5]; compound 10002 nM,0.002963 and 0.00293
same,"Lanthascreen signal, sheet CDK2",[6]; Compound 1.02544 nM,0.009698 and 0.009238
same,"Lanthascreen signal, sheet CDK2",[6]; Compound 3.15521 nM,0.009437 and 0.009539
same,"Lanthascreen signal, sheet CDK2",[6]; Compound 9.46563 nM,0.008356 and 0.007045
same,"Lanthascreen signal, sheet CDK2",[6]; Compound 31.5521 nM,0.006783 and 0.006389
same,"Lanthascreen signal, sheet CDK2",[6]; Compound 99.3891 nM,0.003942 and 0.005883
same,"Lanthascreen signal, sheet CDK2",[6]; Compound 315.521 nM,0.002917 and 0.004435
same,"Lanthascreen signal, sheet CDK2",[6]; Compound 3155.21 nM,0.002797 and 0.003541
same,"Lanthascreen signal, sheet CDK2",[6]; Compound 10002 nM,0.002382 and 0.002785
same,IC50,"[6]; Supplementary Table 2, read-out: Lanthascreen IC50 [nM] CDK2",31 nM

# — article PMC10746543, “Design principles for cyclin K molecular glue degraders” (Nature Chemical Biology, 2023)
